# Assay results taken from patent publication US6818765B1, “Benzene-sulphonamide derivatives and their uses” (Universite de Liege, priority 1999, dated 2004).
# Biological target: T1, thromboxane A2 receptors (TPα) of human platelets (Homo sapiens, UniProt P21731)
# T1 construct: endogenous in cells; host or cells: human platelets
# T1 sequence (P21731 1-343): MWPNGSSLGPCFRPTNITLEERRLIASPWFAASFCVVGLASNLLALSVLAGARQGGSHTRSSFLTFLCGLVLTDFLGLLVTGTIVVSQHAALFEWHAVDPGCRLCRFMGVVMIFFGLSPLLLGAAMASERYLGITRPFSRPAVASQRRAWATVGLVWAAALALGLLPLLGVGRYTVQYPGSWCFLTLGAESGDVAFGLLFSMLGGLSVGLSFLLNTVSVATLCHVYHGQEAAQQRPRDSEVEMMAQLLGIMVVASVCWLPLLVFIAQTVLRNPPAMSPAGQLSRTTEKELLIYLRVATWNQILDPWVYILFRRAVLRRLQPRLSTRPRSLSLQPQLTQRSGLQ
# Assay: Binding test: displacement of [3H]SQ-29.548 from human platelet thromboxane A2 receptors
# Settings: not given
# Description: To operate a first selection, the capacity of these compounds to displace in a specific way a tritium ligand, the [^3H]
# Cozzi P., Giordani A., Menichincheri M., Pillan A., Pinciroli V., Rossi A., Tonani R., Volpi D., Tamburin M., Ferrario R., Fusar D., Salvati P.,—Agents combining thromboxane receptor antagonism with thromboxane synthase inhibition:[[[2-(1H-imidazol-1-yl)ethylidene]amino]oxy]alkanoic acids.—J. Med. Chem., 1994, 37, 3588-3604.
row,Structure (SMILES),IC50
1,Cc1cccc(Nc2ccc([N+](=O)[O-])cc2S(=O)(=O)NC(=O)NC(C)C)c1C [Compound 49],2 nM
2,CC(C)(C)NC(=O)NS(=O)(=O)c1cc([N+](=O)[O-])ccc1NC1CC2CCC1C2 (stereo not shown) [Compound 55],3.4 nM
3,Cc1cccc(Nc2ccc([N+](=O)[O-])cc2S(=O)(=O)NC(=O)NC(C)(C)C)c1C [Compound 73],1.2 nM
4,C[C@H](Nc1ccc([N+](=O)[O-])cc1S(=O)(=O)NC(=O)NC(C)(C)C)c1ccccc1 [Compound 78],4.2 nM
5,C[C@@H](Nc1ccc([N+](=O)[O-])cc1S(=O)(=O)NC(=O)NC(C)(C)C)c1ccccc1 [Compound 80],2.4 nM
6,CCCNC(=O)NS(=O)(=O)c1cc([N+](=O)[O-])ccc1NC1CCCCC1 [Compound 81],57.8 nM
7,CCCCNC(=O)NS(=O)(=O)c1cc([N+](=O)[O-])ccc1NC1CCCCC1 [Compound 82],4.5 nM
8,CCCCCCNC(=O)NS(=O)(=O)c1cc([N+](=O)[O-])ccc1NC1CCCCC1 [Compound 83],4.5 nM
9,CCCCCCCNC(=O)NS(=O)(=O)c1cc([N+](=O)[O-])ccc1NC1CCCCC1 [Compound 84],23.9 nM
10,CCCCCCCCNC(=O)NS(=O)(=O)c1cc([N+](=O)[O-])ccc1NC1CCCCC1 [Compound 85],107 nM
11,Cc1cc(C)c(Nc2ccc([N+](=O)[O-])cc2S(=O)(=O)NC(=O)NC(C)C)c(C)c1 [Compound 86],1.83 nM
12,Cc1ccc(Nc2ccc([N+](=O)[O-])cc2S(=O)(=O)NC(=O)NC(C)C)cc1C [Compound 87],18.1 nM
13,Cc1cc(C)cc(Nc2ccc([N+](=O)[O-])cc2S(=O)(=O)NC(=O)NC(C)C)c1 [Compound 88],16.2 nM
14,Cc1ccc(C)c(Nc2ccc([N+](=O)[O-])cc2S(=O)(=O)NC(=O)NC(C)C)c1 [Compound 89],11.5 nM
15,Cc1ccc(Nc2ccc([N+](=O)[O-])cc2S(=O)(=O)NC(=O)NC(C)C)c(C)c1 [Compound 90],5.46 nM
16,Cc1cccc(C)c1Nc1ccc([N+](=O)[O-])cc1S(=O)(=O)NC(=O)NC(C)C [Compound 91],3.31 nM
17,CCCCCNC(=O)NS(=O)(=O)c1cc([N+](=O)[O-])ccc1Nc1c(C)cc(C)cc1C [Compound 92],1.62 nM

# Same assay, conditions: compound 10^-6 M
row,Structure (SMILES),"Affinity: percent of [3H]SQ-29.548 specifically substituted by the examined compound, 10^-6M"
1,Cc1ccc(Nc2ccc([N+](=O)[O-])cc2S(=O)(=O)NC(=O)NC(C)C)cc1 [Compound 50],95.7%
2,Cc1cccc(Nc2ccc([N+](=O)[O-])cc2S(=O)(=O)NC(=NC#N)NC(C)(C)C)c1 [Compound 51],64.7%
3,Cc1ccccc1Nc1ccc([N+](=O)[O-])cc1S(=O)(=O)NC(=O)NC(C)(C)C [Compound 52],99.0%
4,CC(C)NC(=O)NS(=O)(=O)c1cc([N+](=O)[O-])ccc1Nc1cccc(C(=O)O)c1 [Compound 53],36.5%
5,CC(C)NC(=O)NS(=O)(=O)c1cc([N+](=O)[O-])ccc1NC1CC2CCC1C2 (stereo not shown) [Compound 54],91.7%
6,CC(C)NC(=O)NS(=O)(=O)c1cc([N+](=O)[O-])ccc1NC(C)(C)C [Compound 56],0.0%
7,CCCCCCNc1ccc([N+](=O)[O-])cc1S(=O)(=O)NC(=O)NC(C)C [Compound 57],67.0%
8,CC(C)NC(=O)NS(=O)(=O)c1cc([N+](=O)[O-])ccc1NC12CC3CC(CC(C3)C1)C2 [Compound 58],83.2%
9,CCCCCCNc1ccc([N+](=O)[O-])cc1S(=O)(=O)NC(=O)NC(C)(C)C [Compound 59],92.2%
10,CCCCCCCCCCNc1ccc([N+](=O)[O-])cc1S(=O)(=O)NC(=O)NC(C)C [Compound 60],79.1%
11,CC(C)NC(=O)NS(=O)(=O)c1cc([N+](=O)[O-])ccc1N1CCOCC1 [Compound 62],3.7%
12,CC(C)(C)NC(=O)NS(=O)(=O)c1cc([N+](=O)[O-])ccc1N1CCOCC1 [Compound 63],7.5%
13,CC(C)NC(=O)NS(=O)(=O)c1cc([N+](=O)[O-])ccc1N1CCCCCC1 [Compound 64],57.8%
14,O=C(Nc1ccccc1)NS(=O)(=O)c1cc([N+](=O)[O-])ccc1NC1CCCCC1 [Compound 65],46.6%
15,CC(C)NC(=O)NS(=O)(=O)c1cc(C#N)ccc1NC1CC2CCC1C2 (stereo not shown) [Compound 66],49.6%
16,Cc1ccc(Nc2ccc([N+](=O)[O-])cc2S(=O)(=O)NC(=O)NC(C)(C)C)cc1 [Compound 67],98.3%
17,CC(C)NC(=O)NS(=O)(=O)c1cc([N+](=O)[O-])ccc1NC1C=CCCC1 (stereo not shown) [Compound 68],93.2%
18,CC(C)NC(=O)NS(=O)(=O)c1cc(F)ccc1NC1C=CCCC1 (stereo not shown) [Compound 69],13.2%
19,CC(C)NC(=O)NS(=O)(=O)c1cc(Cl)ccc1NC1C=CCCC1 (stereo not shown) [Compound 70],63.8%
20,CC(C)NC(=O)NS(=O)(=O)c1cc(Br)ccc1NC1C=CCCC1 (stereo not shown) [Compound 71],77.8%
21,CC(C)NC(=O)NS(=O)(=O)c1cc(I)ccc1NC1C=CCCC1 (stereo not shown) [Compound 72],86.5%
22,CC(C)(C)NC(=NC#N)NS(=O)(=O)c1cc([N+](=O)[O-])ccc1NC1CCCCC1 [Compound 74],90.9%
23,CC(C)NC(=O)NS(=O)(=O)c1cc([N+](=O)[O-])ccc1N[C@@H](C)c1ccccc1 [Compound 77],79.4%
24,CC(C)NC(=O)NS(=O)(=O)c1cc([N+](=O)[O-])ccc1N[C@H](C)c1ccccc1 [Compound 79],96.6%

# Same assay, conditions: compound 10^-7 M
row,Structure (SMILES),"Affinity: percent of [3H]SQ-29.548 specifically substituted by the examined compound, 10^-7M"
1,Cc1ccc(Nc2ccc([N+](=O)[O-])cc2S(=O)(=O)NC(=O)NC(C)C)cc1 [Compound 50],76.0%
2,Cc1ccccc1Nc1ccc([N+](=O)[O-])cc1S(=O)(=O)NC(=O)NC(C)(C)C [Compound 52],93.9%
3,Cc1ccc(Nc2ccc([N+](=O)[O-])cc2S(=O)(=O)NC(=O)NC(C)(C)C)cc1 [Compound 67],95.8%
4,CC(C)NC(=O)NS(=O)(=O)c1cc([N+](=O)[O-])ccc1NC1C=CCCC1 (stereo not shown) [Compound 68],67.4%
5,CC(C)NC(=O)NS(=O)(=O)c1cc(I)ccc1NC1C=CCCC1 (stereo not shown) [Compound 72],52.7%

# Same assay, conditions: read-out: Affinity: percent of [3H]SQ-29.548 specifically substituted by the examined compound, compound 10^-6 M
row,Structure (SMILES),inhibition at 1 µM
1,Cc1cccc(Nc2ccc([N+](=O)[O-])cc2S(=O)(=O)NC(=O)NC(C)C)c1C [Compound 49],98.3%
2,CC(C)(C)NC(=O)NS(=O)(=O)c1cc([N+](=O)[O-])ccc1NC1CC2CCC1C2 (stereo not shown) [Compound 55],98.2%
3,CCCCCNC(=O)NS(=O)(=O)c1cc([N+](=O)[O-])ccc1NC1CCCCC1 [Compound 61],98.6%
4,Cc1cccc(Nc2ccc([N+](=O)[O-])cc2S(=O)(=O)NC(=O)NC(C)(C)C)c1C [Compound 73],98.3%
5,C[C@H](Nc1ccc([N+](=O)[O-])cc1S(=O)(=O)NC(=O)NC(C)(C)C)c1ccccc1 [Compound 78],95.3%
6,C[C@@H](Nc1ccc([N+](=O)[O-])cc1S(=O)(=O)NC(=O)NC(C)(C)C)c1ccccc1 [Compound 80],98.6%
7,CCCNC(=O)NS(=O)(=O)c1cc([N+](=O)[O-])ccc1NC1CCCCC1 [Compound 81],93.3%
8,CCCCNC(=O)NS(=O)(=O)c1cc([N+](=O)[O-])ccc1NC1CCCCC1 [Compound 82],98.5%
9,CCCCCCNC(=O)NS(=O)(=O)c1cc([N+](=O)[O-])ccc1NC1CCCCC1 [Compound 83],98.5%
10,CCCCCCCNC(=O)NS(=O)(=O)c1cc([N+](=O)[O-])ccc1NC1CCCCC1 [Compound 84],96.9%
11,CCCCCCCCNC(=O)NS(=O)(=O)c1cc([N+](=O)[O-])ccc1NC1CCCCC1 [Compound 85],92.9%
12,Cc1cc(C)c(Nc2ccc([N+](=O)[O-])cc2S(=O)(=O)NC(=O)NC(C)C)c(C)c1 [Compound 86],98.4%
13,Cc1ccc(Nc2ccc([N+](=O)[O-])cc2S(=O)(=O)NC(=O)NC(C)C)cc1C [Compound 87],95.6%
14,Cc1cc(C)cc(Nc2ccc([N+](=O)[O-])cc2S(=O)(=O)NC(=O)NC(C)C)c1 [Compound 88],95.4%
15,Cc1ccc(C)c(Nc2ccc([N+](=O)[O-])cc2S(=O)(=O)NC(=O)NC(C)C)c1 [Compound 89],96.6%
16,Cc1ccc(Nc2ccc([N+](=O)[O-])cc2S(=O)(=O)NC(=O)NC(C)C)c(C)c1 [Compound 90],96.9%
17,Cc1cccc(C)c1Nc1ccc([N+](=O)[O-])cc1S(=O)(=O)NC(=O)NC(C)C [Compound 91],97.3%
18,CCCCCNC(=O)NS(=O)(=O)c1cc([N+](=O)[O-])ccc1Nc1c(C)cc(C)cc1C [Compound 92],98.8%

# Same assay, conditions: read-out: Affinity: percent of [3H]SQ-29.548 specifically substituted by the examined compound, compound 10^-7 M
row,Structure (SMILES),inhibition at 0.1 µM
1,Cc1cccc(Nc2ccc([N+](=O)[O-])cc2S(=O)(=O)NC(=O)NC(C)C)c1C [Compound 49],94.9%
2,CC(C)(C)NC(=O)NS(=O)(=O)c1cc([N+](=O)[O-])ccc1NC1CC2CCC1C2 (stereo not shown) [Compound 55],93.3%
3,CCCCCNC(=O)NS(=O)(=O)c1cc([N+](=O)[O-])ccc1NC1CCCCC1 [Compound 61],94.8%
4,Cc1cccc(Nc2ccc([N+](=O)[O-])cc2S(=O)(=O)NC(=O)NC(C)(C)C)c1C [Compound 73],95.6%
5,C[C@H](Nc1ccc([N+](=O)[O-])cc1S(=O)(=O)NC(=O)NC(C)(C)C)c1ccccc1 [Compound 78],71.6%
6,C[C@@H](Nc1ccc([N+](=O)[O-])cc1S(=O)(=O)NC(=O)NC(C)(C)C)c1ccccc1 [Compound 80],97.9%
7,CCCNC(=O)NS(=O)(=O)c1cc([N+](=O)[O-])ccc1NC1CCCCC1 [Compound 81],65%
8,CCCCNC(=O)NS(=O)(=O)c1cc([N+](=O)[O-])ccc1NC1CCCCC1 [Compound 82],98%
9,CCCCCCNC(=O)NS(=O)(=O)c1cc([N+](=O)[O-])ccc1NC1CCCCC1 [Compound 83],92.7%
10,CCCCCCCNC(=O)NS(=O)(=O)c1cc([N+](=O)[O-])ccc1NC1CCCCC1 [Compound 84],73.7%
11,CCCCCCCCNC(=O)NS(=O)(=O)c1cc([N+](=O)[O-])ccc1NC1CCCCC1 [Compound 85],42.5%
12,Cc1cc(C)c(Nc2ccc([N+](=O)[O-])cc2S(=O)(=O)NC(=O)NC(C)C)c(C)c1 [Compound 86],94.3%
13,Cc1ccc(Nc2ccc([N+](=O)[O-])cc2S(=O)(=O)NC(=O)NC(C)C)cc1C [Compound 87],76%
14,Cc1cc(C)cc(Nc2ccc([N+](=O)[O-])cc2S(=O)(=O)NC(=O)NC(C)C)c1 [Compound 88],82%
15,Cc1ccc(C)c(Nc2ccc([N+](=O)[O-])cc2S(=O)(=O)NC(=O)NC(C)C)c1 [Compound 89],83.5%
16,Cc1ccc(Nc2ccc([N+](=O)[O-])cc2S(=O)(=O)NC(=O)NC(C)C)c(C)c1 [Compound 90],88.6%
17,Cc1cccc(C)c1Nc1ccc([N+](=O)[O-])cc1S(=O)(=O)NC(=O)NC(C)C [Compound 91],90.8%
18,CCCCCNC(=O)NS(=O)(=O)c1cc([N+](=O)[O-])ccc1Nc1c(C)cc(C)cc1C [Compound 92],95.2%

# Same assay, conditions: read-out: IC 50: concentration required for replacing 50% of [3H]SQ-29.548 bound to receptors TPα
row,Structure (SMILES),IC50
1,Cc1ccccc1Nc1ccc([N+](=O)[O-])cc1S(=O)(=O)NC(=O)NC(C)(C)C [Compound 52],2.8 nM
2,CCCCCNC(=O)NS(=O)(=O)c1cc([N+](=O)[O-])ccc1NC1CCCCC1 [Compound 61],1.1 nM
3,Cc1ccc(Nc2ccc([N+](=O)[O-])cc2S(=O)(=O)NC(=O)NC(C)(C)C)cc1 [Compound 67],1.3 nM
